Laboratory results reported in article PMC9694334, “Synthesis and Biological Evaluation of a Fused Structure of Indolizine and Pyrrolo[1,2-c]pyrimidine: Identification of Its Potent Anticancer Activity against Liver Cancer Cells” (Pharmaceuticals, 2022).

Columns and labels:
[1] = system: HepG2 cells; assay: Cell viability assay (MTS) in HepG2 cells; assay type: cell-based; conditions: mean; for IC50: Homo sapiens, MTS, n = 5, 72 h for 5r (Figure 2)
Protocol: (§1) HepG2, Huh7, H1299, HT29, AGS and A549 cells were purchased from the Korean Cell Line Bank (Seoul, Korea) and HaCaT cells were obtained from Prof. Sohee Kwon (Yonsei University, Korea). Liver cancer cells (HepG2), human keratinocyte cells (HaCaT), and lung cancer cells (A549) were grown in DMEM high-glucose medium, liver cancer cells (Huh7) and non-small cell lung cancer cells (H1299) were grown in RPMI 1640, and gastric cancer cells (AGS) were grown in Coon’s modified F12 medium. All media were supplemented with 10% FBS, 100 Units/mL penicillin, and 100 μg/mL streptomycin. All cells were incubated at 37 °C, 5% CO2 and 95% humidity.
(§2) Cell viability assay was conducted using Cell Titer 96® AQueous One Solution Cell proliferation Assay kit (Promega, Madison, WI, USA). Five cancer cells and HaCaT cells were plated in 96-well microplates with growth medium for 24 h. When cell confluency reached ~30%, cells were treated with DMSO (vehicle) and test compounds. The medium and test compounds were replaced every 24 h. To measure cell viability, the cells were incubated with MTS solution for 1 h. The absorbance was measured by using Infinite M200 microplate reader (Tecan, Männedorf, Switzerland) at 490 nm.
(§3) Figure 2 Effect of 5r on cell viability in HepG2, Huh7, AGS, H1299, A549, HaCaT, NIH3T3, and HEK293T cells. (A–H) HepG2, Huh7, AGS, H1299, A549, HaCaT, NIH3T3, and HEK293T cells were cultured with 5r at the indicated concentrations for 72 h, and medium was replaced every 24 h with freshly added 5r. Cell viability was measured by MTS analysis (mean ± S.D., n = 5). * p < 0.05, ** p < 0.01, *** p < 0.001.

[2] = system: H1299 cells; assay: Cell viability assay (MTS) in H1299 cells; assay type: cell-based; conditions: 10 μM, mean, n = 3
Protocol: as §1, §2, §3

[3] = system: HT29 cells; assay: Cell viability assay (MTS) in HT29 cells; assay type: cell-based; conditions: mean, n = 3
Protocol: as §1, §2

[4] = system: AGS cells; assay: Cell viability assay (MTS) in AGS cells; assay type: cell-based; conditions: 10 μM, mean, n = 3
Protocol: as §1, §2, §3

[5] = system: A549 cells; assay: Cell viability assay (MTS) in A549 cells; assay type: cell-based; conditions: 10 μM, mean, n = 3
Protocol: as §1, §2, §3

[6] = system: Huh7 cells; assay: Cell viability assay (MTS) in Huh7 cells; assay type: cell-based; conditions: Homo sapiens, Huh-7, mean, n = 5, 72 h for 5r (Figure 2)
Protocol: as §1, §2, §3

[7] = system: HaCaT cells; assay: Cell viability assay (MTS) in HaCaT cells; assay type: cell-based, human; conditions: Homo sapiens, mean, n = 5
Protocol: as §1, §2, §3

[8] = system: hepatocellular carcinoma; design: method as in PMID 10951336, PMID 11408798, PMID 11462924, PMID 12115351, PMID 14612894; conditions: gemcitabine alone; phase 2 clinical trials; cited from earlier work
[9] = system: caspase-3; assay: Caspase-3 activity assay in HepG2 cells; assay type: cell-based; conditions: 20 μM Ac-DEVD-CHO, Figure 4C
Protocol: (§4) HepG2 and Huh7 cells were plated in 96-black-well plate to about 40% confluence, and then 5r was treated for 24 h. To assess activity of caspase-3, the growth medium was changed with 100 μL of PBS containing 1 μM caspase-3 substrate, NucView 488, and incubated at room temperature. After 20 min, 1 μM Hoechst 33342 was treated to stain the cells. Activity of caspase-3 was suppressed by Ac-DEVD-CHO, a selective caspase-3 inhibitor. FLUOstar Omega microplate reader (BMG Labtech, Ortenberg, Germany) was used to assess the fluorescence of NucView 488 and Hoechst, and Lionheart FX Automated Microscope (BioTek, Winooski, VT, USA) was used to acquire the fluorescence microscopy images.
(§5) Figure 4 Effect of 5r on activity of caspase-3 and cleavage of PARP in HepG2 and Huh7 cells. (A,B) HepG2 and Huh7 cells were incubated with 3 µM 5r for 24 h and then incubated with 1 µM caspase-3 substrate (green) and 1 µM Hoechst 33,342 (blue) for 20 min before image acquisition. (C,D) Cells were cultured with 5r at the indicated concentrations for 24 h and then 1 μM caspase-3 substrate was treated for 20 min. Caspase-3 was inhibited by 20 μM Ac-DEVD-CHO (mean ± S.D., n = 3). (E,F) Cells were cultured with 5r at the indicated concentrations for 24 h, and expression level of PARP, cleaved-PARP and β-actin were measured by Western blot analysis. […]

[10] = system: caspase-3; assay: Caspase-3 activity assay in Huh7 cells; assay type: cell-based; conditions: 20 μM Ac-DEVD-CHO, Figure 4D
Protocol: as §4, §5

IC50 [1] | IC50 [6] | Compound | IC50 [7] | also measured
0.28 µM | 0.75 µM | N#Cc1c2c3cccn3c(-c3cccs3)nc2n2ccccc12 [Compound 5n, 5-(Thiophen-2-yl)pyrrolo[1′,2′:1,6]pyrimido[5,4-b]indolizine-12-carbonitrile] | 13.3 µM | % Inhibition of Cell Viability at 10 μM HepG2 ([1]; 10 μM, n = 3): 98.9%; % Inhibition of Cell Viability at 10 μM H1299 [2]: 70.3%; % Inhibition of Cell Viability at 10 μM HT29 [3]: 48.4%; % Inhibition of Cell Viability at 10 μM AGS [4]: <25%; % Inhibition of Cell Viability at 10 μM A549 [5]: 38.0%
1.31 µM | 1.45 µM | COc1cccc(-c2nc3c(c(C#N)c4ccccn43)c3cccn23)c1 [Compound 5q, 5-(3-Methoxyphenyl)pyrrolo[1′,2′:1,6]pyrimido[5,4-b]indolizine-12-carbonitrile] | 8.3 µM | –
2.94 µM | 4.02 µM | N#Cc1c2c3cccn3c(-c3cccc(O)c3)nc2n2ccccc12 [Compound 5s, 5-(3-Hydroxyphenyl)pyrrolo[1′,2′:1,6]pyrimido[5,4-b]indolizine-12-carbonitrile] | 8.49 µM | –
1.58 µM | 1.92 µM | N#Cc1c2c3cccn3c(-c3ccccc3F)nc2n2ccccc12 [Compound 5t, 5-(2-Fluorophenyl)pyrrolo[1′,2′:1,6]pyrimido[5,4-b]indolizine-12-carbonitrile] | 6.78 µM | –
2.1 µM | 3.95 µM | N#Cc1c2c3cccn3c(-c3ccccc3Cl)nc2n2ccccc12 [Compound 5u, 5-(2-Chlorophenyl)pyrrolo[1′,2′:1,6]pyrimido[5,4-b]indolizine-12-carbonitrile] | 11.5 µM | –
1.48 µM | 1.33 µM | N#Cc1c2c3cccn3c(-c3cccc(Cl)c3)nc2n2ccccc12 [Compound 5v, 5-(3-Chlorophenyl)pyrrolo[1′,2′:1,6]pyrimido[5,4-b]indolizine-12-carbonitrile] | 15.3 µM | –
1.75 µM | 2.72 µM | N#Cc1c2c3cccn3c(-c3ccccc3Br)nc2n2ccccc12 [Compound 5w, 5-(2-Bromophenyl)pyrrolo[1′,2′:1,6]pyrimido[5,4-b]indolizine-12-carbonitrile] | 9.53 µM | –
3.52 µM | 7.85 µM | N#Cc1c2c3cccn3c(-c3ncc[nH]3)nc2n2ccccc12 [Compound 5x, 5-(1H-Imidazol-2-yl)pyrrolo[1′,2′:1,6]pyrimido[5,4-b]indolizine-12-carbonitrile] | 24.1 µM | –
0.79 µM | 0.64 µM | COc1ccc(O)c(-c2nc3c(c(C#N)c4ccccn43)c3cccn23)c1 [Compound 5y, 5-(2-Hydroxy-5-methoxyphenyl)pyrrolo[1′,2′:1,6]pyrimido[5,4-b]indolizine-12-carbonitrile] | 2.25 µM | –
0.64 µM | 0.71 µM | COc1ccc(-c2nc3c(c(C#N)c4ccccn43)c3cccn23)c(O)c1 [Compound 5z, 5-(2-Hydroxy-4-methoxyphenyl)pyrrolo[1′,2′:1,6]pyrimido[5,4-b]indolizine-12-carbonitrile] | 1.95 µM | –
2.27 µM | 0.6 µM | N#Cc1c2c3[nH]c4ccccc4c3c(-c3cccs3)nc2n2ccccc12 [Compound 10d, 7-(Thiophen-2-yl)-12H-indolizino[2′,3′:5,6]pyrido[4,3-b]indole-13-carbonitrile] | 0.81 µM | –
– | – | Nc1ccn([C@@H]2O[C@H](CO)[C@@H](O)C2(F)F)c(=O)n1 [gemcitabine] | – | Response rate [8]: 0–20%
– | – | Ac-DEVD-CHO [reference compound] | – | Inhibition of 5r-increased caspase-3 activity in HepG2 cells [9]: fully inhibited; Inhibition of 5r-increased caspase-3 activity in Huh7 cells [10]: fully inhibited
